The results in this text go back to patent US20230295182A1, “SPIRO DERIVATIVES OF ALPHA-D-GALACTOPYRANOSIDES” (Idorsia Pharmaceuticals Ltd, priority 2020, published 2023).

Molecules are shown by their SMILES.

Assay [1] has as its target human Gal-3 (hGal-3) (Homo sapiens (Human), UniProt P17931). The experiment in a line: Competitive binding assay: biotinylated hGal-3 to microplate-adsorbed asialofetuin (ASF). The conditions noted are these: Activity on hGal-3; binding to ASF-coated plates, 3 hours at 4° C.; mean values. The procedure, abridged: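 Biotinylated hGal-3 (300-1000 ng/mL) binding to plate-adsorbed asialofetuin, with DMSO-diluted compound added, incubated 3 h at 4 °C. After washing, bound protein detected with streptavidin-peroxidase (80 ng/mL, 1 h, 4 °C) and ABTS substrate, read spectrophotometrically. IC50 given as mean of several measurements.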

For assay [2], the target named is human Gal-1 (hGal-1) (Homo sapiens, UniProt P09382). Put plainly: Competitive binding assay: biotinylated hGal-1 to microplate-adsorbed asialofetuin (ASF). The conditions noted are these: Activities on hGal-1; binding to ASF-coated plates, 3 hours at 4° C.; mean values; read-out: Gal-1 IC50. The procedure, abridged: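 Plate-adsorbed asialofetuin is incubated 3 h at 4 °C with biotinylated hGal-1, optionally its all-serine-substituted cysteine variant, plus compound dilutions. ABTS color after 1 h streptavidin-peroxidase (80 ng/mL) at 4 °C reports binding. Reported IC50 is a mean across repeat runs.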
Sequence of human Gal-1 (hGal-1) (P09382 2-135 limits assumed): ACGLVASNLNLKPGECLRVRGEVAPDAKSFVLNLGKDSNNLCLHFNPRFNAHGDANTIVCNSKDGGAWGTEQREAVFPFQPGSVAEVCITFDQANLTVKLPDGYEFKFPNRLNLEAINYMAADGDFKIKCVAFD

Sequence of human Gal-3 (hGal-3) (P17931 whole entry): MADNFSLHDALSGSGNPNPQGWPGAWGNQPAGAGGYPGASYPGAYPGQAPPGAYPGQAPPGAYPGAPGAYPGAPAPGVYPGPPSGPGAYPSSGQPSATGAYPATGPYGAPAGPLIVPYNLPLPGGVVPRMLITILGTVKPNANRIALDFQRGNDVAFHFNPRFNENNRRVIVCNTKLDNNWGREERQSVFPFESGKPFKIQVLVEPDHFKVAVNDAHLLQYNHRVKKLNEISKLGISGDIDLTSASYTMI

In general, IC50 refers to the midpoint of a concentration-inhibition curve. In the case of `CO[C@@H]1[C@@H](n2cc(-c3ccc(C)c(F)c3F)nn2)[C@@H](O)[C@@H](CO)O[C@@H]1CC1=NOC2(C1)CC1CCC(C1)C2` (stereo partly drawn) [Example 1.82, (2R,3R,4S,5R,6R)-6-((4′H-spiro[bicyclo[3.2.1]octane-3,5′-isoxazol]-3′-yl)methyl)-4-(4-(2,3-difluoro-4-methylphenyl)-1H-1,2,3-triazol-1-yl)-2-(hydroxymethyl)-5-methoxytetrahydro-2H-pyran-3-ol], the concentration for half-maximal inhibition (IC50) is 50 nM in assay [1] and 1950 nM in assay [2].
Taken in the same sequence, the figures for `CO[C@@H]1[C@@H](n2cc(-c3cc(F)c(F)c(F)c3)nn2)[C@@H](O)[C@@H](CO)O[C@@H]1CC1=NOC2(CCC(O)CC2)C1` (stereo partly drawn) [Example 2.01, 3-(((2R,3R,4S,5R,6R)-5-hydroxy-6-(hydroxymethyl)-3-methoxy-4-(4-(3,4,5-trifluorophenyl)-1H-1,2,3-triazol-1-yl)tetrahydro-2H-pyran-2-yl)methyl)-1-oxa-2-azaspiro[4.5]dec-2-en-8-ol] were 250 nM and 2200 nM.
Taken in the same sequence, the figures for `CO[C@@H]1[C@@H](n2cc(-c3cc(F)c(F)c(F)c3)nn2)[C@@H](O)[C@@H](CO)O[C@@H]1CC1=NO[C@]2(CC[C@@H](O)CC2)C1` [Example 2.02, (5s,8S)-3-(((2R,3R,4S,5R,6R)-5-hydroxy-6-(hydroxymethyl)-3-methoxy-4-(4-(3,4,5-trifluorophenyl)-1H-1,2,3-triazol-1-yl)tetrahydro-2H-pyran-2-yl)methyl)-1-oxa-2-azaspiro[4.5]dec-2-en-8-ol] were 700 nM and 5100 nM.
For `CO[C@@H]1[C@@H](n2cc(-c3cc(F)c(F)c(F)c3)nn2)[C@@H](O)[C@@H](CO)O[C@@H]1CC1=NO[C@]2(CC[C@H](O)CC2)C1` [Example 2.03, (5r,8R)-3-(((2R,3R,4S,5R,6R)-5-hydroxy-6-(hydroxymethyl)-3-methoxy-4-(4-(3,4,5-trifluorophenyl)-1H-1,2,3-triazol-1-yl)tetrahydro-2H-pyran-2-yl)methyl)-1-oxa-2-azaspiro[4.5]dec-2-en-8-ol], the IC50 is 190 nM in assay [1] and 2000 nM in assay [2].
Consider `CO[C@@H]1[C@@H](n2cc(-c3cc(F)c(F)c(F)c3)nn2)[C@@H](O)[C@@H](CO)O[C@@H]1CC1=NO[C@]2(CC[C@H](NC(C)=O)CC2)C1` [Example 2.04, N-((5r,8R)-3-(((2R,3R,4S,5R,6R)-5-hydroxy-6-(hydroxymethyl)-3-methoxy-4-(4-(3,4,5-trifluorophenyl)-1H-1,2,3-triazol-1-yl)tetrahydro-2H-pyran-2-yl)methyl)-1-oxa-2-azaspiro[4.5]dec-2-en-8-yl)acetamide], for which the values for the IC50 in assay [1] and in assay [2] were 61 nM and 810 nM, respectively.
As for `CO[C@@H]1[C@@H](n2cc(-c3cc(F)c(F)c(F)c3)nn2)[C@@H](O)[C@@H](CO)O[C@@H]1CC1=NO[C@]2(CC[C@@H](NC(C)=O)CC2)C1` [Example 2.05, N-((5s,8S)-3-(((2R,3R,4S,5R,6R)-5-hydroxy-6-(hydroxymethyl)-3-methoxy-4-(4-(3,4,5-trifluorophenyl)-1H-1,2,3-triazol-1-yl)tetrahydro-2H-pyran-2-yl)methyl)-1-oxa-2-azaspiro[4.5]dec-2-en-8-yl)acetamide], the IC50 in assay [1] was 450 nM; in assay [2], 3600 nM.
Taken in the same sequence, the figures for `CO[C@@H]1[C@@H](n2cc(-c3ccc(C)c(F)c3F)nn2)[C@@H](O)[C@@H](CO)O[C@@H]1CC1=NO[C@]2(CC[C@H](NC(C)=O)CC2)C1` [Example 2.06] were 71 nM and 340 nM.
Taken in the same sequence, the figures for `CO[C@@H]1[C@@H](n2cc(-c3ccc(Cl)c(F)c3F)nn2)[C@@H](O)[C@@H](CO)O[C@@H]1CC1=NO[C@]2(CC[C@H](NC(C)=O)CC2)C1` [Example 2.07, N-((5r,8R)-3-(((2R,3R,4S,5R,6R)-4-(4-(4-chloro-2,3-difluorophenyl)-1H-1,2,3-triazol-1-yl)-5-hydroxy-6-(hydroxymethyl)-3-methoxytetrahydro-2H-pyran-2-yl)methyl)-1-oxa-2-azaspiro[4.5]dec-2-en-8-yl)acetamide] were 62 nM and 910 nM.
Regarding `CO[C@@H]1[C@@H](n2cc(-c3ccc(F)c(F)c3F)nn2)[C@@H](O)[C@@H](CO)O[C@@H]1CC1=NO[C@]2(CC[C@H](NC(C)=O)CC2)C1` [Example 2.08, N-((5r,8R)-3-(((2R,3R,4S,5R,6R)-5-hydroxy-6-(hydroxymethyl)-3-methoxy-4-(4-(2,3,4-trifluorophenyl)-1H-1,2,3-triazol-1-yl)tetrahydro-2H-pyran-2-yl)methyl)-1-oxa-2-azaspiro[4.5]dec-2-en-8-yl)acetamide], the concentration for half-maximal inhibition (IC50) in assay [1] is 52 nM; in assay [2], 310 nM.
With `CCOC(=O)N[C@H]1CC[C@]2(CC1)CC(C[C@H]1O[C@H](CO)[C@H](O)[C@H](n3cc(-c4ccc(C)c(F)c4F)nn3)[C@H]1OC)=NO2` [Example 2.09, ethyl ((5r,8R)-3-(((2R,3R,4S,5R,6R)-4-(4-(2,3-difluoro-4-methylphenyl)-1H-1,2,3-triazol-1-yl)-5-hydroxy-6-(hydroxymethyl)-3-methoxytetrahydro-2H-pyran-2-yl)methyl)-1-oxa-2-azaspiro[4.5]dec-2-en-8-yl)carbamate], the half-inhibitory concentration (IC50) was found to be 17 nM in assay [1] and 640 nM in assay [2].
Taken in the same sequence, the figures for `CCOC(=O)N[C@H]1CC[C@]2(CC1)CC(C[C@H]1O[C@H](CO)[C@H](O)[C@H](n3cc(-c4ccc(F)c(F)c4F)nn3)[C@H]1OC)=NO2` [Example 2.10, ethyl ((5r,8R)-3-(((2R,3R,4S,5R,6R)-5-hydroxy-6-(hydroxymethyl)-3-methoxy-4-(4-(2,3,4-trifluorophenyl)-1H-1,2,3-triazol-1-yl)tetrahydro-2H-pyran-2-yl)methyl)-1-oxa-2-azaspiro[4.5]dec-2-en-8-yl)carbamate] were 20 nM and 320 nM.
Take `CCOC(=O)N[C@H]1CC[C@]2(CC1)CC(C[C@H]1O[C@H](CO)[C@H](O)[C@H](n3cc(-c4ccc(Cl)c(F)c4F)nn3)[C@H]1OC)=NO2` [Example 2.11, ethyl ((5r,8R)-3-(((2R,3R,4S,5R,6R)-4-(4-(4-chloro-2,3-difluorophenyl)-1H-1,2,3-triazol-1-yl)-5-hydroxy-6-(hydroxymethyl)-3-methoxytetrahydro-2H-pyran-2-yl)methyl)-1-oxa-2-azaspiro[4.5]dec-2-en-8-yl)carbamate]: the 50% inhibitory concentration (IC50) in assay [1] was found to be 19 nM; in assay [2], 340 nM.
Taken in the same sequence, the figures for `CO[C@@H]1[C@@H](n2cc(-c3cc(F)c(F)c(F)c3)nn2)[C@@H](O)[C@@H](CO)O[C@@H]1CC1=NO[C@]2(CC[C@H](NC(C)C)CC2)C1` [Example 2.12, (2R,3R,4S,5R,6R)-2-(hydroxymethyl)-6-(((5r,8R)-8-(isopropylamino)-1-oxa-2-azaspiro[4.5]dec-2-en-3-yl)methyl)-5-methoxy-4-(4-(3,4,5-trifluorophenyl)-1H-1,2,3-triazol-1-yl)tetrahydro-2H-pyran-3-ol] were 220 nM and 2400 nM.
As for `CO[C@@H]1[C@@H](n2cc(-c3cc(F)c(F)c(F)c3)nn2)[C@@H](O)[C@@H](CO)O[C@@H]1CC1=NO[C@]2(CC[C@@H](NC(C)C)CC2)C1` [Example 2.13, (2R,3R,4S,5R,6R)-2-(hydroxymethyl)-6-(((5s,8S)-8-(isopropylamino)-1-oxa-2-azaspiro[4.5]dec-2-en-3-yl)methyl)-5-methoxy-4-(4-(3,4,5-trifluorophenyl)-1H-1,2,3-triazol-1-yl)tetrahydro-2H-pyran-3-ol], the half-inhibitory concentration (IC50) in assay [1] came out at 550 nM; in assay [2], 7000 nM.
Take `CCC(CC)NC1CCC2(CC1)CC(C[C@H]1O[C@H](CO)[C@H](O)[C@H](n3cc(-c4cc(F)c(F)c(F)c4)nn3)[C@H]1OC)=NO2` (stereo partly drawn) [Example 2.14, (2R,3R,4S,5R,6R)-2-(hydroxymethyl)-5-methoxy-6-((8-(pentan-3-ylamino)-1-oxa-2-azaspiro[4.5]dec-2-en-3-yl)methyl)-4-(4-(3,4,5-trifluorophenyl)-1H-1,2,3-triazol-1-yl)tetrahydro-2H-pyran-3-ol]: the IC50 worked out at 390 nM in assay [1] and 2600 nM in assay [2].
Taken in the same sequence, the figures for `CO[C@@H]1[C@@H](n2cc(-c3cc(F)c(F)c(F)c3)nn2)[C@@H](O)[C@@H](CO)O[C@@H]1CC1=NOC2(CCC(NCC(F)F)CC2)C1` (stereo partly drawn) [Example 2.15, (2R,3R,4S,5R,6R)-6-((8-((2,2-difluoroethyl)amino)-1-oxa-2-azaspiro[4.5]dec-2-en-3-yl)methyl)-2-(hydroxymethyl)-5-methoxy-4-(4-(3,4,5-trifluorophenyl)-1H-1,2,3-triazol-1-yl)tetrahydro-2H-pyran-3-ol] were 280 nM and 7200 nM.
Taken in the same sequence, the figures for `CO[C@@H]1[C@@H](n2cc(-c3cc(F)c(F)c(F)c3)nn2)[C@@H](O)[C@@H](CO)O[C@@H]1CC1=NOC2(CCC(NC3CC3)CC2)C1` (stereo partly drawn) [Example 2.16, (2R,3R,4S,5R,6R)-6-((8-(cyclopropylamino)-1-oxa-2-azaspiro[4.5]dec-2-en-3-yl)methyl)-2-(hydroxymethyl)-5-methoxy-4-(4-(3,4,5-trifluorophenyl)-1H-1,2,3-triazol-1-yl)tetrahydro-2H-pyran-3-ol] were 240 nM and 2400 nM.
Consider `CO[C@@H]1[C@@H](n2cc(-c3cc(F)c(F)c(F)c3)nn2)[C@@H](O)[C@@H](CO)O[C@@H]1CC1=NOC2(CCC(NCC(F)(F)F)CC2)C1` (stereo partly drawn) [Example 2.17, (2R,3R,4S,5R,6R)-2-(hydroxymethyl)-5-methoxy-6-((8-((2,2,2-trifluoroethyl)amino)-1-oxa-2-azaspiro[4.5]dec-2-en-3-yl)methyl)-4-(4-(3,4,5-trifluorophenyl)-1H-1,2,3-triazol-1-yl)tetrahydro-2H-pyran-3-ol], for which the 50% inhibitory concentration (IC50) in assay [1] stood at 210 nM; in assay [2] it was 1400 nM.
